Laboratory results from PubChem BioAssay AID248 (DTP/NCI, 2004).
Where “and” joins values, the source holds several entries; their conditions need not be identical. Identical values can stand only once. Inconclusive results and toxic doses are left out. Cut-off read from the data, not from the text of the source: active = T/C of 150% or more; inactive = T/C below 125%.

Tested on: L1210 leukemia ip in BDF1 mice, survival T/C
Assay: NCI In Vivo Anticancer Drug Screen. Data for tumor model L1210 Leukemia (intraperitoneal) in B6D2F1 (BDF1) mice
Details: endpoint: mean survival time, higher = longer survival
How it was run: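 Each compound was tested against a transplantable tumor grown in mice. The endpoint was survival, with treated animals benchmarked against vehicle controls as a simple ratio.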

[1] = dose: 100.0 mg/kg/injection, schedule: Q01DX009 (ip), vehicle: saline with Tween-80
[2] = dose: 100.0 mg/kg/injection, schedule: Q04DX003 (ip), vehicle: Klucel (hydroxypropylcellulose) (HPC)
[3] = dose: 100.0 mg/kg/injection, schedule: Q04DX003 (ip), vehicle: saline with Tween-80
[4] = dose: 200.0 mg/kg/injection, schedule: Q01DX009 (ip), vehicle: saline with Tween-80
[5] = dose: 200.0 mg/kg/injection, schedule: Q04DX003 (ip), vehicle: Klucel (hydroxypropylcellulose) (HPC)
[6] = dose: 200.0 mg/kg/injection, schedule: Q04DX003 (ip), vehicle: saline with Tween-80
[7] = dose: 400.0 mg/kg/injection, schedule: Q01DX009 (ip), vehicle: saline with Tween-80
[8] = dose: 400.0 mg/kg/injection, schedule: Q04DX003 (ip), vehicle: saline with Tween-80
[9] = dose: 12.5 mg/kg/injection, schedule: Q01DX009 (ip), vehicle: saline
[10] = dose: 25.0 mg/kg/injection, schedule: Q01DX009 (ip), vehicle: saline
[11] = dose: 50.0 mg/kg/injection, schedule: Q01DX009 (ip), vehicle: saline
[12] = dose: 75.0 mg/kg/injection, schedule: Q01DX001 (ip), vehicle: saline
[13] = dose: 150.0 mg/kg/injection, schedule: Q01DX001 (ip), vehicle: saline
[14] = dose: 300.0 mg/kg/injection, schedule: Q01DX001 (ip), vehicle: saline
[15] = dose: 100.0 mg/kg/injection, schedule: Q01DX001 (ip), vehicle: saline
[16] = dose: 200.0 mg/kg/injection, schedule: Q01DX001 (ip), vehicle: saline
[17] = dose: 400.0 mg/kg/injection, schedule: Q01DX001 (ip), vehicle: saline
[18] = dose: 100.0 mg/kg/injection, schedule: Q01DX009 (ip), vehicle: Klucel (hydroxypropylcellulose) (HPC)
[19] = dose: 200.0 mg/kg/injection, schedule: Q01DX009 (ip), vehicle: Klucel (hydroxypropylcellulose) (HPC)

Measured: T/C

O=C(O)CCC(NC(=O)OCc1ccccc1)C(=O)O (centres undefined)
inactive: [1] 100 % of control | [2] 103 % of control | dose: 100.0 mg/kg/injection, schedule: Q04DX003 (ip), vehicle: other 98 % of control | [3] 104 % of control and 95 % of control | [4] 98 % of control | [5] 99 % of control | dose: 200.0 mg/kg/injection, schedule: Q04DX003 (ip), vehicle: other 102 % of control | [6] 101 % of control and 92 % of control | [7] 98 % of control | dose: 400.0 mg/kg/injection, schedule: Q04DX003 (ip), vehicle: Klucel (hydroxypropylcellulose) (HPC) 91 % of control | dose: 400.0 mg/kg/injection, schedule: Q04DX003 (ip), vehicle: other 98 % of control | [8] 101 % of control and 104 % of control

CCN(CC)C(=O)c1cccnc1
inactive: [9] 102 % of control | [10] 89 % of control | [11] 93 % of control | [12] 102 % of control | dose: 100.0 mg/kg/injection, schedule: Q01DX009 (ip), vehicle: saline 105 % of control | [13] 94 % of control | dose: 200.0 mg/kg/injection, schedule: Q01DX009 (ip), vehicle: saline 93 % of control | [14] 90 % of control

O=C(/C=C\c1ccccc1)OCCCCOC(=O)/C=C/c1ccccc1
inactive: dose: 50.0 mg/kg/injection, schedule: Q01DX001 (ip), vehicle: saline 103 % of control | [15] 101 % of control | [16] 91 % of control | [17] 97 % of control

Cc1cc(P(=O)(O)O)ccc1[N+](=O)[O-]
inactive: [12] 95 % of control | [13] 88 % of control | [14] 96 % of control

c1ccc2c(C(CCN3CCOCC3)(CCN3CCOCC3)CNC3=NCCN3)cccc2c1
inactive: [9] 105 % of control | dose: 25.0 mg/kg/injection, schedule: Q01DX009 (ip), vehicle: saline with Tween-80 103 % of control | [10] 109 % of control | [11] 111 % of control

CC12CCC(O)CC1CCC1C3CC/C(=C\c4ccco4)C(=O)C3(CCC#N)CCC12 (centres undefined)
inactive: dose: 100.0 mg/kg/injection, schedule: Q01DX001 (sc), vehicle: steriod suspending solution 108 % of control | dose: 200.0 mg/kg/injection, schedule: Q01DX001 (sc), vehicle: steriod suspending solution 106 % of control | dose: 400.0 mg/kg/injection, schedule: Q01DX001 (sc), vehicle: steriod suspending solution 106 % of control

O=c1oc2cc(N=Cc3ccc4c(c3)OCO4)ccc2c2ccccc12
inactive: dose: 100.0 mg/kg/injection, schedule: Q01DX001 (ip), vehicle: other 91 % of control | dose: 200.0 mg/kg/injection, schedule: Q01DX001 (ip), vehicle: other 93 % of control | dose: 400.0 mg/kg/injection, schedule: Q01DX001 (ip), vehicle: other 90 % of control

CCOC(=O)C1=NN(c2ccccc2)C(=O)C1N=Nc1ccc(S(=O)(=O)Nc2cc(C)nc(C)n2)cc1 (centres undefined)
inactive: [15] 101 % of control | [16] 102 % of control | [17] 96 % of control

COC(=O)[C@@H]1c2cc3c(c(O)c2[C@@H](OC2OC(C)C(OC)C(C)(OC)C2OC)C[C@]1(C)O)C(=O)c1c(O)cc2c(c1C3=O)O[C@H]1O[C@]2(C)[C@H](O)[C@@H](N(C)C)[C@@H]1O (some centres undefined)
inactive: dose: 0.2 mg/kg/injection, schedule: Q01DX Z (ip), vehicle: saline 98 % of control | dose: 0.25 mg/kg/injection, schedule: Q01DX009 (ip), vehicle: saline 102 % of control | dose: 0.3 mg/kg/injection, schedule: Q01DX Z (ip), vehicle: saline 116 % of control | dose: 0.44 mg/kg/injection, schedule: Q01DX Z (ip), vehicle: saline 107 % of control | dose: 0.5 mg/kg/injection, schedule: Q01DX009 (ip), vehicle: saline 107 % of control | dose: 0.67 mg/kg/injection, schedule: Q01DX Z (ip), vehicle: saline 112 % of control | dose: 0.8 mg/kg/injection, schedule: Q## X008 (ip), vehicle: saline 113 % of control | dose: 0.8 mg/kg/injection, schedule: Q## X032 (ip), vehicle: saline 113 % of control | dose: 1.0 mg/kg/injection, schedule: Q01DX001 (ip), vehicle: saline 115 % of control | dose: 1.0 mg/kg/injection, schedule: Q01DX009 (ip), vehicle: saline 106 % of control | dose: 1.0 mg/kg/injection, schedule: Q01DX Z (ip), vehicle: saline 107 % of control | dose: 1.5 mg/kg/injection, schedule: Q01DX Z (ip), vehicle: carboxymethylcellulose (CMC) 116 % of control | dose: 2.0 mg/kg/injection, schedule: Q01DX001 (ip), vehicle: saline 120 % of control | dose: 2.0 mg/kg/injection, schedule: Q01DX009 (ip), vehicle: saline 86 % of control | dose: 2.0 mg/kg/injection, schedule: Q01DX Z (ip), vehicle: carboxymethylcellulose (CMC) 102 % of control | dose: 4.0 mg/kg/injection, schedule: Q01DX001 (ip), vehicle: saline 114 % of control | dose: 5.0 mg/kg/injection, schedule: Q01DX001 (ip), vehicle: saline 118 % of control | dose: 8.0 mg/kg/injection, schedule: Q01DX001 (ip), vehicle: saline 108 % of control | dose: 8.0 mg/kg/injection, schedule: Q## X008 (ip), vehicle: saline 109 % of control | dose: 8.0 mg/kg/injection, schedule: Q## X032 (ip), vehicle: saline 103 % of control | dose: 10.0 mg/kg/injection, schedule: Q01DX001 (ip), vehicle: saline 109 % of control

Nc1nc2c(ncn2-c2cccc(-c3ccccc3)c2)c(=O)[nH]1
inactive: dose: 25.0 mg/kg/injection, schedule: Q04DX003 (ip), vehicle: saline with Tween-80 100 % of control | dose: 50.0 mg/kg/injection, schedule: Q04DX003 (ip), vehicle: saline with Tween-80 102 % of control | [3] 100 % of control | [6] 87 % of control

CCS(=O)(=O)CS(=O)(=O)Cc1ccccc1
inactive: dose: 75.0 mg/kg/injection, schedule: Q04DX003 (ip), vehicle: saline 94 % of control | dose: 150.0 mg/kg/injection, schedule: Q04DX003 (ip), vehicle: saline 95 % of control | dose: 300.0 mg/kg/injection, schedule: Q04DX003 (ip), vehicle: saline 95 % of control

CC(=O)Nc1cc([N+](=O)[O-])ccc1C
inactive: [18] 100 % of control | [19] 105 % of control

O=C(/C=C/c1ccc(Cl)cc1Cl)c1ccc(Cl)cc1
inactive: [1] 105 % of control | [3] 95 % of control | [4] 90 % of control | [6] 93 % of control | [7] 90 % of control | [8] 88 % of control

CCCCN1c2ccccc2NP1(=S)c1ccccc1 (centres undefined)
inactive: dose: 100.0 mg/kg/injection, schedule: Q04DX002 (ip), vehicle: DMSO 93 % of control | dose: 200.0 mg/kg/injection, schedule: Q04DX002 (ip), vehicle: DMSO 101 % of control

Oc1cccc2cccnc12.[Al]
inactive: dose: 10.0 mg/kg/injection, schedule: Q01DX Z (ip), vehicle: carboxymethylcellulose (CMC) 93 % of control | dose: 20.0 mg/kg/injection, schedule: Q01DX Z (ip), vehicle: carboxymethylcellulose (CMC) 97 % of control | dose: 40.0 mg/kg/injection, schedule: Q01DX Z (ip), vehicle: carboxymethylcellulose (CMC) 93 % of control | dose: 50.0 mg/kg/injection, schedule: Q01DX009 (ip), vehicle: Klucel (hydroxypropylcellulose) (HPC) 94 % of control | dose: 50.0 mg/kg/injection, schedule: Q04DX003 (ip), vehicle: Klucel (hydroxypropylcellulose) (HPC) 101 % of control | [18] 100 % of control | [2] 102 % of control | [19] 96 % of control | [5] 101 % of control

C=CC(=O)Nc1cccc(OC(=O)NC(C)(C)C)c1
inactive: [3] 101 % of control | [6] 92 % of control | [8] 87 % of control

C/C(Cc1ccccc1)=N\[N+](C)(C)C
inactive: dose: 75.0 mg/kg/injection, schedule: Q01DX009 (ip), vehicle: saline 107 % of control | dose: 100.0 mg/kg/injection, schedule: Q04DX003 (ip), vehicle: saline 104 % of control | dose: 150.0 mg/kg/injection, schedule: Q01DX009 (ip), vehicle: saline 100 % of control | dose: 200.0 mg/kg/injection, schedule: Q04DX003 (ip), vehicle: saline 86 % of control
